Assay results published in patent publication US8288409B2, “Quinolizidinone M1 receptor positive allosteric modulators” (Merck Sharp & Dohme Corp., priority 2008, dated 2012).

Each compound was assayed against T1, acetylcholine muscarinic M1 receptor (Homo sapiens, UniProt P11229) (assay: FLIPR intracellular calcium assay for M1 receptor positive allosteric modulator activity). Conditions: not given.
T1 construct: expressed in transfected cells; host or cells: CHOnfat cells (CHO; also called CHOK1/hM1)
T1 sequence (P11229 1-460): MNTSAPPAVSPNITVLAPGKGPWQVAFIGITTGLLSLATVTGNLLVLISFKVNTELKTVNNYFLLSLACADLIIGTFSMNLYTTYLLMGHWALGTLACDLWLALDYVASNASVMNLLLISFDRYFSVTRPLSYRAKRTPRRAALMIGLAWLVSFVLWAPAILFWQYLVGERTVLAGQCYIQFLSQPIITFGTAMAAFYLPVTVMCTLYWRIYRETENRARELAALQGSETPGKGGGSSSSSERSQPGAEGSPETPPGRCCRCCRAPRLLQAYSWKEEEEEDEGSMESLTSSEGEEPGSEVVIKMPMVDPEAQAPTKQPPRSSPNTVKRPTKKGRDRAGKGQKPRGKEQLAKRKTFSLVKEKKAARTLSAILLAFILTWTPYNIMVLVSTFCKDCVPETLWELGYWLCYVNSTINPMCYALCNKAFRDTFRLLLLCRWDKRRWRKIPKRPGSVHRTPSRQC
Type: cell-based
Description: The assay studies the effect of one or several concentrations of test compounds on basal or acetylcholine-stimulated Ca^2+ levels using FLIPR.
Compounds are prepared and subjected to a preincubation period of 4 min. Thereafter, a single EC20 concentration of acetylcholine is added to each well (3 nM final). The intracellular Ca^2+ level of each sample is measured and compared to an acetylcholine control to determine any modulatory activity.
Cells: CHOnfat/hM1, hM2, hM3 or hM4 cells are plated 24 hr before the assay at a density of 18,000 cells/well (100 μl) in a 384 well plate. CHOnfat/hM1 and CHOnfat/hM3 Growth Medium: 90% DMEM (Hi Glucose); 10% HI FBS; 2 mM L-glutamine; 0.1 mM NEAA; Pen-Strep; and 1 mg/ml Geneticin, are added. For M2Gqi5CHOnfat and M4Gqi5CHOnfat cells, an additional 600 μg/ml hygromycin is added.
Buffers. […] Dye Loading Buffer: Assay Buffer plus 1% Fetal Bovine Serum and Fluo-4AM/Pluronic Acid Mixture. […] 20% Pluronic Acid Solution stock, with a concentration of 0.04% in Buffer, 0.02% in Assay.
65 μL of 2 mM Fluo-4AM are mixed with 130 of 20% Pluronic Acid. The resulting solution and 650 μL FBS is added to the assay buffer for a total volume of 65 mL. Positive Controls: 4-Br-A23187: 10 mM in DMSO; final concentration 10 μM. Acetylcholine: 10 mM in water, working stock at both 20 μM and 30 μM in assay buffer, final concentration of 10 μM. This is used to check the maximum stimulation of the CHOK1/hM1 cells. 20 μM (2×) acetylcholine is added in the preincubation part of the assay, and the 30 μM (3×) stock is added in the second part. (EC20)Acetylcholine: 10 mM in water, working stock of 9 nM (3×), and final concentration in assay is 3 nM. This is used after the preincubation with test compounds. Addition of the EC20 Acetylcholine to each well with a test compound will ascertain any modulator activity. 24 wells contain 3 nM Acetylcholine alone as a control.
Determining Activity of Putative Compounds:
Four 96-well plates are combined into a 384-well plate using Mosquito Nanolitre Pipetting System by transferring 1 μl of serial diluted compounds to each well, and 1 mM acetylcholine (100× stock concentration) were added as a control. Using Temo, 49 μl assay buffer is added to each well of the 384-well plate right before assay.
In a 96-well Whatman 2 ml Uniplate, 9 nM Acetylcholine (3×) is pipetted into wells corresponding to the screening compounds and into control wells. The 30 μM acetylcholine control (3×) is added into control wells and the 3× agonist plate is transferred into a 384-well plate.
Cells are washed three times with 100 μL of buffer, leaving 30 μL of buffer in each well. Using Multimek, 30 μL of Dye Loading Buffer is added into each well and incubated at 37° C., 5% CO2 for up to one hr.
After 60 min, the cells are washed three times with 100 μL of buffer, leaving 30 μL of buffer in each well. The cell plate, screening plate, and agonist addition plates are placed on the platform in the FLIPR and the door is closed. A signal test to check background fluorescence and basal fluorescence signal is performed. Laser intensity is adjusted if necessary.
4 min of preincubation with the test compounds is provided to determine any agonist activity on the M1 receptor by comparison to the 1 mM acetylcholine control. After preincubation, the EC20 value of acetylcholine (3 nM final) is added to determine any modulator activity.

EC50 | SMILES
1.34 µM | O=C(O)c1cc(CN2CCC(c3ccccc3)CC2)c2ccccn2c1=O [Example 25]

Same assay, conditions: CHOnfat/hM1 cells, 4 min preincubation, then EC20 acetylcholine (3 nM final), intracellular Ca2+ by FLIPR384; read-out: IP Value (inflection point)

EC50 | SMILES
8.7 µM | O=C(O)c1cc(CN2CCCC(O)C2)c2ccccn2c1=O (stereo not drawn) [Example 24]
0.122 µM | O=C(O)c1cc(CN2CCC(c3nc4ccccc4[nH]3)CC2)c2ccccn2c1=O [Example 85]
0.042 µM | O=C(O)c1cc(CN2CCC(c3nc4cc(F)ccc4[nH]3)CC2)c2ccccn2c1=O [Example 86]
30.5 µM | Cn1c(C2CCN(Cc3cc(C(=O)O)c(=O)n4ccccc34)CC2)nc2ccccc21 [Example 91, 1-{[4-(1-methyl-1H-benzimidazol-2-yl)piperidin-1-yl]methyl}-4-oxo-4H-quinolizine-3-carboxylic Acid]

Continued, compound first:

SMILES | EC50
O=C(O)c1cc(CN2CCC(c3ccc(C(F)(F)F)cc3)CC2)c2ccccn2c1=O [Example 1, 4-oxo-1-({4-[4-(trifluoromethyl)phenyl]piperidin-1-yl}methyl)-4H-quinolizine-3-carboxylic Acid] | 0.548 µM
O=C(O)c1cc(CN2CCCCC2c2ccncc2)c2ccccn2c1=O (stereo not drawn) [Example 6] | 2.25 µM
O=C(O)c1cc(CN2CCCCC2c2nc3cc(F)ccc3[nH]2)c2ccccn2c1=O (stereo not drawn) [Example 14] | 0.508 µM
O=C(O)c1cc(CN2CCC(c3c[nH]c4ccc(O)cc34)CC2)c2ccccn2c1=O [Example 83] | 0.277 µM
